Experimental data as given in BindingDB's records for doi:10.1021/jm070487n (Universita Degli Studi Di Bari, 2007).
pKi: −log10 of the molar value.

Biological target: 5-hydroxytryptamine receptor 2A (Rattus norvegicus, UniProt P14842)
Assay: Radioligand Labeled Binding Assay
Method: (§1) IC50 values for each test compound were determined from nonlinear regression analysis of data collected from ligand binding experiments. The inhibition constant (Ki) was calculated from IC50 value by the Cheng and Prusoff equation.

Chain of 5-hydroxytryptamine receptor 2A (P14842 whole entry): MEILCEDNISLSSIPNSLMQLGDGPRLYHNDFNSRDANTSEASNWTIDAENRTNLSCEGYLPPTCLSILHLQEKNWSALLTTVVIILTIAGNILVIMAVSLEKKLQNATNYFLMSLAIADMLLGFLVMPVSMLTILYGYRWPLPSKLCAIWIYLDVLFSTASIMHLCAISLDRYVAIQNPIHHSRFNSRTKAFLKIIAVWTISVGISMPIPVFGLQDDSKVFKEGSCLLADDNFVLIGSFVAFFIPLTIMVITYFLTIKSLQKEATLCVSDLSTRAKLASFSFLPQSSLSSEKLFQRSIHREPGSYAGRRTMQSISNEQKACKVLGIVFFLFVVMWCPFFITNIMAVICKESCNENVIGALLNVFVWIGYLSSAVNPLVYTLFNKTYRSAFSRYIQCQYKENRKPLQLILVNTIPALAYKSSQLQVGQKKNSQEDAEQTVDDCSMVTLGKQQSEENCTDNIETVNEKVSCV

SMILES	pKi
COc1ccccc1N1CCN(CCCCCC(=O)NC2CCCc3ccccc32)CC1 (configuration not stated)	5.90

Biological target: T1, 5-hydroxytryptamine receptor 1A (Homo sapiens, UniProt P08908)
T1 sequence (P08908 whole entry): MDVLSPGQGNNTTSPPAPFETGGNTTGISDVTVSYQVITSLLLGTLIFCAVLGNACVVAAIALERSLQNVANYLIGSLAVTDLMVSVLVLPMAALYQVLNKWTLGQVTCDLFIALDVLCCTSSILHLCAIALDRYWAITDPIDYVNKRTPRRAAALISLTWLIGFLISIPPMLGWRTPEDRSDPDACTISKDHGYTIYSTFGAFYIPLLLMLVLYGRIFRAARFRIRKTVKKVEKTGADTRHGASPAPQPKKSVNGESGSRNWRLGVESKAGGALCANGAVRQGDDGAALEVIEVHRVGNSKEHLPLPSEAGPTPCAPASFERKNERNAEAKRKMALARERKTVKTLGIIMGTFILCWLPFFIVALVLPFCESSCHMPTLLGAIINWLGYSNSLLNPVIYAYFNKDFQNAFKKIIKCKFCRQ
Assay: Radioligand Labeled Binding Assay
Method: as §1

SMILES	pKi
CC(=O)c1ccccc1N1CCN(CCCCCC(=O)NC2CCCc3ccccc32)CC1 (configuration not stated)	8.41
COc1ccccc1N1CCN(CCCCCC(=O)NC2CCCc3ccccc32)CC1 (configuration not stated)	8.07
Cc1ccccc1N1CCN(CCCCCC(=O)NC2CCCc3ccccc32)CC1 (configuration not stated)	6.55
CSc1ccccc1N1CCN(CCCCCC(=O)NC2CCCc3ccccc32)CC1 (configuration not stated)	7.28
O=C(CCCCCN1CCN(c2ccccc2O)CC1)NC1CCCc2ccccc21 (configuration not stated)	7.62
CS(=O)(=O)c1ccccc1N1CCN(CCCCCC(=O)NC2CCCc3ccccc32)CC1 (configuration not stated)	5.51
O=C(CCCCCN1CCN(c2ccccc2)CC1)NC1CCCc2ccccc21 (configuration not stated)	6.89
NC(=O)c1ccccc1N1CCN(CCCCCC(=O)NC2CCCc3ccccc32)CC1 (configuration not stated) [2-{4-[5-(1,2,3,4-tetrahydronaphthalen-1-ylcarbamoyl)pentyl]piperazin-1-yl}benzamide]	6.31
N#Cc1ccccc1N1CCN(CCCCCC(=O)NC2CCCc3ccccc32)CC1 (configuration not stated) [6-[4-(2-cyanophenyl)piperazin-1-yl]-N-(1,2,3,4-tetrahydronaphthalen-1-yl)hexanamide]	7.78
O=C(CCCCCN1CCN(c2ccccc2Cl)CC1)NC1CCCc2ccccc21 (configuration not stated)	7.02
O=C(CCCCCN1CCN(c2ccccc2[N+](=O)[O-])CC1)NC1CCCc2ccccc21 (configuration not stated) [6-[4-(2-nitrophenyl)piperazin-1-yl]-N-(1,2,3,4-tetrahydronaphthalen-1-yl)hexanamide]	6.74
